Test results published in US7153869B2, “Substituted amino acids as erythropoietin mimetics” (priority 1998, dated 2006).
Read-outs that look alike come from different tables or passages of the source.

Target: T1, EBP-Ig (N-terminal 225 amino acids of the human EPO receptor joined to an Ig heavy chain) (Homo sapiens, UniProt P19235)
T1 construct: Ig heavy chain (fusion partner); made in house; host or cells: NSO cells (secreted into conditioned media)
T1 sequence (P19235 25-250 limits assumed): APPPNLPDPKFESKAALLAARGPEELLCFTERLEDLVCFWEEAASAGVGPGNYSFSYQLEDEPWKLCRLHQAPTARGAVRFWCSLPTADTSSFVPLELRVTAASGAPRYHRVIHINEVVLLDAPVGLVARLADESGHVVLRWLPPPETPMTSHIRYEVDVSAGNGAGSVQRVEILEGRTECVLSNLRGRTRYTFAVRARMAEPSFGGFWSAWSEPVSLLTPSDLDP
Test: Inhibition of [125I]EPO binding to immobilized EBP-Ig (EPO binding protein-Ig), scintillation Flash plate competition assay
Conditions: for IC30 μM (Inhibition of EPO binding to EBP-Ig): 0–500 μM test compound; for % inh @ 50 μM (Inhibition of EPO binding to EBP-Ig): 50 μM test compound, average % inhibition
Excerpt: The interaction of biotin and streptavidin is frequently employed to capture and effectively immobilize reagents useful in assay protocols and has been employed here as a simple method to capture and immobilize EBP-Ig. EBP-Ig is initially randomly modified with an amine reactive derivative of biotin to produce biotinylated-EBP-Ig. Use of streptavidin coated plates allows the capture of the biotinylated EBP-Ig on the surface of a scintillant impregnated coated well (Flash plates, NEN-DuPont). […] The amount of light produced was quantified to estimate the amount of ligand binding. The specific assay format was suitable for the multi-well plate capacity of a Packard TopCount Microplate Scintillation counter.
Biotinylated EBP-Ig was prepared as follows. EBP-Ig (3 mL, OD280 2.9) was exchanged into 50 mM sodium bicarbonate, pH 8.5 using a Centriprep 10 ultrafiltration device. The final volume of the exchanged protein was 1.2 mL (OD280 2.6, representing about 2 mg total protein). 10 μL of a 4 mg/ml solution of NHS-LC-Biotin (Pierce) was added and the reaction mixture placed on ice in the dark for two hours. Unreacted biotin was removed by exchange of the reaction buffer into PBS in a Centriprep 10 device and the protein reagent aliquoted and stored at −70° C.
All wells were adjusted to a final DMSO concentration of 5%. […] After all additions were made, the plate was covered with an adhesive top seal and placed in the dark at room temperature overnight. The next day all liquid was aspirated from the wells to limit analyte dependent quench of the signal, and the plates were counted on a Packard TOPCOUNT Microplate Scintillation Counter. […] Corrected total binding (CTB) was calculated as: TB−NSB=CTB. […] Table 1 lists the average % inhibition, and if determined the IC50 and IC30 values for compounds of Formula I, where the compound numbers refer to the compounds in the tables accompanying the preparative examples.

[1] = read-out: % inh @ 50 μM (Inhibition of EPO binding to EBP-Ig)
[2] = read-out: EPO/EBP-Ig % inh @ 50 μM, Table 11, 50 μM

SMILES: O=C(O)CC(C(=O)NCCCOCCCCOCCCNC(=O)C(CC(=O)O)N(Cc1ccc(OCc2ccccc2)cc1)Cc1ccc(OCc2ccccc2)cc1)N(Cc1ccc(OCc2ccccc2)cc1)Cc1ccc(OCc2ccccc2)cc1 (centres unmarked) [compound 243]
- IC50: 18 µM
- IC30 μM (Inhibition of EPO binding to EBP-Ig) (0.5 nM [125I]EPO): 2 µM
- inhibition at 50 µM [1]: 75%
- inhibition at 50 µM [2]: 75%

SMILES: CC(C(=O)O)N(CC=Cc1cccs1)CC=Cc1cccs1 (centres unmarked) [compound 54]
- EPO/EBP-Ig % inh @ 50 μM (Table 3, 50 μM): 18%

SMILES: COC(=O)C(CCCCNC(=O)OCc1ccccc1)N(C/C=C/c1ccc(OC)cc1)C/C=C/c1ccc(OC)cc1 (centres unmarked) [compound 174]
- EPO/EBP-Ig % inh @ 50 μM (50 μM compound, Table 9): 23%

SMILES: CC(C)(C)OC(=O)CC(C(=O)NCCCOCCCCOCCCNC(=O)C(CC(=O)OC(C)(C)C)N(C/C=C/c1cccc(Oc2ccc(C(C)(C)C)cc2)c1)C/C=C/c1cccc(Oc2ccc(C(C)(C)C)cc2)c1)N(C/C=C/c1cccc(Oc2ccc(C(C)(C)C)cc2)c1)C/C=C/c1cccc(Oc2ccc(C(C)(C)C)cc2)c1 (centres unmarked) [compound 252]
- EPO/EBP-Ig % inh @ 50 μM (50 μM compound, Table 12): −4%

SMILES: COC(=O)[C@H](CO)NC/C=C/c1cccc(Oc2ccc(C(C)(C)C)cc2)c1.O=C(O)C(F)(F)F [compound 343]
- EPO/EBP-Ig % inh @ 50 μM (50 μM compound, Table 20A): 37%

SMILES: COC(=O)[C@H](COC(C)(C)C)N(C/C=C/c1ccc(-c2ccccc2)cc1)C/C=C/c1ccc(-c2ccccc2)cc1 [compound 291]
- EPO/EBP-Ig % inh @ 50 μM (50 μM compound, Table 16A): 17%

SMILES: COC(=O)C(CCC(=O)O)NCC=Cc1cccc(Oc2ccccc2)c1 (centres unmarked) [cpd 325, N-(3-Phenoxycinnamyl)Glu-OMe]
- EPO/EBP-Ig % inh @ 50 μM (50 μM compound, Table 19A): 6%

SMILES: CC(C)(C)OC[C@@H](C(=O)O)N(C/C=C/c1cccc(Oc2cccc(C(F)(F)F)c2)c1)C/C=C/c1cccc(Oc2cccc(C(F)(F)F)c2)c1 [compound 303]
- EPO/EBP-Ig % inh @ 50 μM (50 μM compound, Table 16A): 21%

SMILES: CC(C)(C)OC(=O)CC[C@H](NC/C=C/c1ccc(-c2ccccc2)cc1)C(=O)O [compound 340]
- EPO/EBP-Ig % inh @ 50 μM (50 μM compound, Table 19A): 14%

SMILES: O=C(NCCCCC(C(=O)O)N(C/C=C/c1ccccc1)C/C=C/c1ccccc1)OCc1ccccc1 (centres unmarked) [compound 172]
- EPO/EBP-Ig % inh @ 50 μM (50 μM compound, Table 9): 15%

SMILES: CC(C)(C)OC(=O)NCCCCC(C(=O)NCCCOCCOCCOCCCNC(=O)C(CCCCNC(=O)OC(C)(C)C)N(Cc1ccc(OCc2ccccc2)cc1)Cc1ccc(OCc2ccccc2)cc1)N(Cc1ccc(OCc2ccccc2)cc1)Cc1ccc(OCc2ccccc2)cc1 (centres unmarked) [compound 257]
- EPO/EBP-Ig % inh @ 50 μM (50 μM compound, Table 13): −26%

SMILES: O=C(O)C(F)(F)F.O=C(O)[C@H](CO)NC/C=C/c1cccc(Oc2ccc(Cl)c(Cl)c2)c1 [compound 349]
- EPO/EBP-Ig % inh @ 50 μM (50 μM compound, Table 20A): 23%

SMILES: COC(=O)C(CCCCNC(=O)OC(C)(C)C)N(C/C=C/c1cccc(Oc2ccccc2)c1)C/C=C/c1cccc(Oc2ccccc2)c1 (centres unmarked) [compound 180]
- EPO/EBP-Ig % inh @ 50 μM (50 μM compound, Table 9): −4%

SMILES: COc1cccc(CCNC(=O)C(CCCCN)N(C/C=C/c2ccccc2)C/C=C/c2ccccc2)c1 (centres unmarked) [compound 222]
- IC30 μM (Inhibition of EPO binding to EBP-Ig) (0.5 nM [125I]EPO): 5 µM
- EPO/EBP-Ig % inh @ 50 μM (50 μM compound, Table 10): 56%
- % inh @ 50 μM (Inhibition of EPO binding to EBP-Ig) (0.5 nM [125I]EPO): 56%

SMILES: O=C(O)CCCC(=O)NCCCCC(C(=O)NCCOCCOCCNC(=O)C(CCCCNC(=O)CCCC(=O)O)N(Cc1ccc(OCc2ccccc2)cc1)Cc1ccc(OCc2ccccc2)cc1)N(Cc1ccc(OCc2ccccc2)cc1)Cc1ccc(OCc2ccccc2)cc1 (centres unmarked) [compound 263]
- IC30 μM (Inhibition of EPO binding to EBP-Ig) (0.5 nM [125I]EPO): 1 µM
- EPO/EBP-Ig % inh @ 50 μM (50 μM compound, Table 13): 88%
- % inh @ 50 μM (Inhibition of EPO binding to EBP-Ig) (0.5 nM [125I]EPO): 88%
- IC50 (read-out: IC50, μM (Inhibition of EPO binding to EBP-Ig), 0.5 nM [125I]EPO, concentration reducing corrected total binding to 50%): 1.5 µM

SMILES: Cc1ccc(C(=O)Nc2cccc(CN(Cc3cccc(NC(=O)c4ccc(C)cc4)c3)C(CC(=O)O)C(=O)O)c2)cc1 (centres unmarked) [cpd 64, N,N-bis(3-(4-Methylbenzoyl)aminobenzyl)Asp-OH]
- EPO/EBP-Ig % inh @ 50 μM (Table 4, 50 μM): −4%

SMILES: O=C(O)CC(C(=O)NCCCOCCOCCOCCCNC(=O)C(CC(=O)O)N(Cc1ccc(OCc2ccccc2)cc1)Cc1ccc(OCc2ccccc2)cc1)N(Cc1ccc(OCc2ccccc2)cc1)Cc1ccc(OCc2ccccc2)cc1 (centres unmarked) [compound 244]
- IC50: 28 µM
- IC30 μM (Inhibition of EPO binding to EBP-Ig) (0.5 nM [125I]EPO): 1 µM
- inhibition at 50 µM [1]: 66%
- inhibition at 50 µM [2]: 66%

SMILES: COc1cccc(CCNC(=O)C(CCCCN)N(C/C=C/c2ccc([N+](=O)[O-])cc2)C/C=C/c2ccc([N+](=O)[O-])cc2)c1 (centres unmarked) [compound 233]
- EPO/EBP-Ig % inh @ 50 μM (50 μM compound, Table 10): 18%

SMILES: COc1ccc(C(=O)Nc2ccc(/C=C/CN(Cc3ccc(OCc4ccccc4)cc3)C(CCC(=O)O)C(=O)O)cc2)cc1 (centres unmarked) [compound 82]
- % inh @ 50 μM (Inhibition of EPO binding to EBP-Ig) (0.5 nM [125I]EPO): 32%
- EPO/EBP-Ig % inh @ 50 μM (Table 5, 50 μM): 32%

SMILES: CCCCNC(=O)C(CCCCNC(=O)c1ccccc1OC)N(C/C=C/c1ccccc1)C/C=C/c1ccccc1 (centres unmarked) [compound 209]
- EPO/EBP-Ig % inh @ 50 μM (50 μM compound, Table 10, 50 µM): 25%
